Reference: patent US9682955B2, “Quinazoline derivatives useful as CB-1 inverse agonists” (Janssen Pharmaceutica NV, priority 2014, dated 2017)
“And” between values parts separate entries of the source, which are not always exact repeats. Equal values may be shown once. Read-outs that look alike come from different tables or passages of the source. Blank lines part the entries; values can stand above or below the molecule they belong to.

Tests used:
[1] = Mouse Fast PK/BBB (plasma and brain concentration); format: in vivo, Male C57bl/6j mice; settings: for concentration at 4 h / concentration at 1 h: male, C57bl/6j
Protocol: Male Sprague Dawley rats were ordered from Charles River (225-250 gm upon arrival). They were fed standard chow diet (Purina 5001) and housed 2 per cage. Male C57bl/6j mice were ordered from Charles River at 22-25 g and housed 3 per cage. They were fed standard chow (Purina 5001). All animals were housed in a temperature-controlled room with 12-hour light/dark cycle. Animals were given food and water ad libitum, except as noted.
[…] Test compounds were administered by oral gavage (5 ml kg^−1).
Male C57bl/6j mice were dosed with test compounds at 30 mg/kg. Plasma was collected via retro-orbital bleeding at 1 hr and 4 hrs after dosing. Whole brain without cerebellum was collected at 4 hrs after dosing. Wet brain weight was recorded before freezing. Brains were homogenized in saline and sent for analysis for determination of concentration of test compound.
Tables 6A and 6B below present results for representative compounds of the present invention, tested according to the procedure as described above. Each compound was tested in three animals (N=3) and administered PO at 20 mg/kg or 30 mg/kg.

[2] = molecular target: Human CB1R (Cannabanoid receptor 1) (Homo sapiens (Human), UniProt P21554); test: CB-1 in vitro cAMP assay (HTRF); format: cell-based; settings: mean where tested more than once
Chain of Human CB1R (Cannabanoid receptor 1) (P21554 whole entry): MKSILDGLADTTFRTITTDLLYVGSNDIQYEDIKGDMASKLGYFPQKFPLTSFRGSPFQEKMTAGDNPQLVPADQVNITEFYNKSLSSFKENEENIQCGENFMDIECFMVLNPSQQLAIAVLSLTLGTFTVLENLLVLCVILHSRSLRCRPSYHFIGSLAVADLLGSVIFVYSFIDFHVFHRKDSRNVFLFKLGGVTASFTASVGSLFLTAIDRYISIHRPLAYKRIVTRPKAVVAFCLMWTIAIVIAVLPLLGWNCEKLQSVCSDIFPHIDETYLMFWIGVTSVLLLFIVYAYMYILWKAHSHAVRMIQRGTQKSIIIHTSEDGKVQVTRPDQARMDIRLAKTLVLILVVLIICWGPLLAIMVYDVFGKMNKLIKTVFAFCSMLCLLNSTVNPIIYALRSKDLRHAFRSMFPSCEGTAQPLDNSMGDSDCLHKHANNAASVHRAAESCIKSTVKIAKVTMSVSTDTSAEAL
In short: (§1)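 HEK-293 cells stably transfected with the human receptor, plated overnight at 4E5 cells/mL. Compounds given as 1/3 serial dilutions from 10 mM DMSO stocks. Stimulation in HBSS/5 mM HEPES/0.1% BSA with 0.5 mM IBMX and forskolin (1.5 μM in buffer); cAMP measured by competitive HTRF immunoassay (d2-cAMP, cryptate anti-cAMP) against a cAMP standard curve.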

[3] = molecular target: Human CB2R (Cannabanoid receptor 2) (Homo sapiens (Human), UniProt P34972); test: CB-2 in vitro cAMP assay (HTRF); format: cell-based; settings: mean where tested more than once
Chain of Human CB2R (Cannabanoid receptor 2) (P34972 whole entry): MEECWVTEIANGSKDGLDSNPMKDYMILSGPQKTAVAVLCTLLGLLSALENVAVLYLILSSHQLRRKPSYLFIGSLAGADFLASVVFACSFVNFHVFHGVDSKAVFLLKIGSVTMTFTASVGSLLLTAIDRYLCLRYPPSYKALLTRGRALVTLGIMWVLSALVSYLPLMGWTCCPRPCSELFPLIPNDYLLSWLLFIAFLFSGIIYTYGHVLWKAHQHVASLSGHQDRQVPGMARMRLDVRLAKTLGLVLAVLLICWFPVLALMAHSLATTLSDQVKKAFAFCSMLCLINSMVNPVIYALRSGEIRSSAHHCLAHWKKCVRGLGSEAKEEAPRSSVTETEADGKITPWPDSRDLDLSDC
In short: as §1

[4] = molecular target: hCB1-CHO-K1 membranes (Homo sapiens (Human), UniProt P21554); test: CB-1 membrane binding assay ([3H] CP 55,940 displacement); settings: [3H] CP 55,940 0.4 nM
Chain of hCB1-CHO-K1 membranes (P21554 whole entry): as the sequence (P21554 whole entry) above
Protocol: Into Greiner V bottom polypropylene plates, hCB1-CHO-K1 membranes (2 μg/well final concentration) in assay buffer (50 mM Tris-HCl pH 7.4, 5 mM MgCl2 and 0.5 mg/ml (0.05%) Ultra fatty acid free BSA) were dispensed. Membranes were purchased from Perkin Elmer. Test compounds were then added to each well and then [^3H] CP 55, 940 (0.4 nM final well concentration) in assay buffer (50 mM Tris-HCl pH 7.4, 5 mM MgCl2 and 0.5 mg/ml (0.05%) Ultra fatty acid free BSA) was added. Samples were mixed and incubated for 90 min at 30° C. in the Greiner V Bottom Polypropylene plate. After incubation, assay reagents were transferred to a blocked 384 well polypropylene filter plates. The binding reaction was stopped by filtration and washed seven times with ice cold rinse buffer. Filter plates were then dried overnight at room temperature. The next day, plate bottoms were sealed with plate tape and 15 μl MicroScint 20 was added to each well. Plates were incubated for 2h and radioactivity was measured by Topcount.
Total Binding levels were achieved by combining membrane, DMSO, and [^3H] CP-55,940 (also known as 5-(1,1-dimethylheptyl)-2-[(1R,2R,5R)-5-hydroxy-2-(3-hydroxypropyl)cyclohexyl]-phenol). […]
IC50 data was calculated using raw CPM values. […] IC50 values were fit appropriately and calculated using the following equation: […]

[5] = PO 20 mg/kg, 10% PEG400 and 10% Solutol in water, 1 hr, individual animals
[6] = PO 20 mg/kg, 10% PEG400 and 10% Solutol in water, 4 hr, individual animals
[7] = PO 30 mg/kg, 5% NMP and 20% HPβCD ~pH8 in water, 1 hr, individual animals
[8] = PO 30 mg/kg, 5% NMP and 20% HPβCD ~pH8 in water, 4 hr, individual animals
[9] = plasma, PO 30 mg/kg, 1 hr, N=3, read-out: PLASMA Mean Conc. ± Std. Dev

- concentration at 1 h ([1]; brain, PO 20 mg/kg, 1 hr, N=3, read-out: BRAIN Mean Conc. ± Std. Dev): 61.7 ± 22.6 ng/mL
- concentration at 4 h ([1]; brain, PO 20 mg/kg, 4 hr, N=3, read-out: BRAIN Mean Conc. ± Std. Dev): 192 ± 14 ng/mL
- concentration at 1 h ([1]; plasma, PO 20 mg/kg, 1 hr, N=3, read-out: PLASMA Mean Conc. ± Std. Dev): 3300 ± 537 ng/mL
- concentration at 4 h ([1]; plasma, PO 20 mg/kg, 4 hr, N=3, read-out: PLASMA Mean Conc. ± Std. Dev): 3790 ± 743 ng/mL
- EC50 [2]: 11 nM
- EC50 [3]: > 10000 nM
SMILES: FC(F)(F)c1ccc(CNc2ncnc3ccc(C(c4ccc(Cl)cc4)c4ccc(Cl)cc4)cc23)cc1 [compound 138, 6-(bis(4-chlorophenyl)methyl)-N-(4-(trifluoromethyl)benzyl)quinazolin-4-amine]

- BRAIN Mean Conc. ± Std. Dev ([1]; PO 30 mg/kg, 1 hr, N=3): BLOQ ± NA
- BRAIN Mean Conc. ± Std. Dev ([1]; PO 30 mg/kg, 4 hr, N=3): BLOQ ± NA
- concentration at 1 h [1, 9]: 946 ± 99.4 ng/mL
- concentration at 4 h ([1]; plasma, PO 30 mg/kg, 4 hr, N=3, read-out: PLASMA Mean Conc. ± Std. Dev): 1300 ± 155 ng/mL
- EC50 [2]: 21 nM
- EC50 [3]: 4460 nM
SMILES: OCC(CO)(CO)COc1nc(NCc2cccc(C(F)(F)F)c2)c2cc(C(c3ccc(Cl)cc3)c3ccc(Cl)cc3)ccc2n1 [Compound #54, 2-(((6-(bis(4-chlorophenyl)methyl)-4-((3-(trifluoromethyl)benzyl)amino)quinazolin-2-yl)oxy)methyl)-2-(hydroxymethyl)propane-1,3-diol]

Second part, the molecule before the results:

SMILES: O=C(O)c1ccc(S(=O)(=O)N2CCC(Nc3ncnc4ccc(C(c5ccc(Cl)cc5)c5ccc(Cl)cc5)cc34)CC2)cc1 [Compound #93, 4-((4-((6-(bis(4-chlorophenyl)methyl)quinazolin-4-yl)amino)piperidin-1-yl)sulfonyl)benzoic acid]
- BRAIN Range of Conc. [1, 5]: ND, ND, ND
- PLASMA Range of Conc. [1, 5]: ND, BLOQ, ND
- BRAIN Range of Conc. [1, 6]: ND, ND, ND
- PLASMA Range of Conc. [1, 6]: 17.155 ng/mL and 6.427 ng/mL
- BRAIN Range of Conc. [1, 7]: BLOQ, BLOQ,
- PLASMA Range of Conc. [1, 7]: 280 ng/mL and 9.10 ng/mL and 9.00 ng/mL
- BRAIN Range of Conc. [1, 8]: BLOQ, BLOQ,
- PLASMA Range of Conc. [1, 8]: BLOQ, BLOQ,
- concentration at 4 h ([1]; plasma, PO 20 mg/kg, 10% PEG400 and 10% Solutol in water, 4 hr, individual animals, read-out: PLASMA Range of Conc.): 16.1 ng/mL
- EC50 [2]: 14 nM
- EC50 [3]: 323 nM

SMILES: N=C(N)c1ccc(S(=O)(=O)N2CCC(Nc3ncnc4ccc(C(c5ccc(Cl)cc5)c5ccc(Cl)cc5)cc34)CC2)cc1 [Compound #47, 4-((4-((6-(bis(4-chlorophenyl)methyl)quinazolin-4-yl)amino)piperidin-1-yl)sulfonyl)benzimidamide]
- BRAIN Mean Conc. ± Std. Dev ([1]; PO 30 mg/kg, 1 hr, N=3): BLOQ ± NA
- BRAIN Mean Conc. ± Std. Dev ([1]; PO 30 mg/kg, 4 hr, N=3): BLOQ ± NA
- PLASMA Mean Conc. ± Std. Dev ([1]; PO 30 mg/kg, 4 hr, N=3): BLOQ ± NA
- concentration at 1 h [1, 9]: 7.83 ± 1.08 ng/mL
- EC50 [2]: 10 nM
- EC50 [3]: 3920 nM

SMILES: CS(=O)(=O)N1CCC(Nc2ncnc3ccc(C(c4ccc(Cl)cc4)c4ccc(Cl)cc4)cc23)CC1 [Compound #140, 6-(bis(4-chlorophenyl)methyl)-N-(1-(methylsulfonyl)piperidin-4-yl) quinazolin-4-amine]
- IC50 [4]: 74 nM
- EC50 [2]: 24 nM
- EC50 [3]: 2450 nM
